Source: article PMC9291521 (Frontiers in Chemistry, 2022)
Read-outs that look alike come from different tables or passages of the source. Residues, ends and D or L forms follow the SMILES beside them. *: point of attachment. Cbz = O=C(OCc1ccccc1)*

Legend:
human cathepsin B = target: T1, human cathepsin B (Homo sapiens, UniProt P07858); experiment: Kinetic assay of human cathepsin B inhibition (Z-FR-AMC peptidolysis); assay type: biochemical; settings: after 30-min incubation; pH 5.5; read-out: Ki* hCatB
T1 construct: purchased Millipore Sigma; host or cells: human liver (so in the source)

SARS-CoV-2 3CL protease = SARS-CoV-2 3CL protease (Severe acute respiratory syndrome coronavirus 2, UniProt P0DTD1); experiment: Kinetic assay of SARS-CoV-2 3CL-PR inhibition (FRET substrate); assay type: biochemical; settings: after 30-min incubation; pH 7.2; read-out: Ki* 3CLpro
[1] = test system: SARS-CoV-2-infected Vero E6 cells; experiment: Micro-neutralization assay, virus-induced cytopathic effect in Vero E6 cells; assay type: cell-based
human cathepsin L [2] = target: T2, human cathepsin L (Homo sapiens, UniProt P07711); settings: for Ki: read-out: Ki* hCatL, after 30-min incubation, pH 5.5, fit of vs/v0 to Eq. 5; for fold more potent for human cathepsin L than for cruzain (Ki*): hCatL vs cruzain
Method: (§1) Recombinant proteases were obtained from the following vendors: recombinant human cathepsin L (Millipore Sigma, Athens Research and Technology, Inc.), and human liver cathepsin B (Millipore Sigma), which were used without further purification. […] These samples were then diluted into the same buffer to concentrations of ∼100 nM, and these dilutions were stored at 4°C and used daily until depletion.
(§2) For assays of cathepsin L and B, inhibitors were evaluated in 0.25-ml reaction mixtures containing a buffer of sodium acetate (pH 5.5), 1 mM CHAPS, 1 mM Na2EDTA, and 5 mM DTT at 25°C. The fluorogenic substrate Cbz-Phe-Arg-7-amino-4-methyl-coumarin (Z-FR-AMC) was dissolved in 100% DMSO, as were all inhibitors and aliquots of both substrates, and inhibitors were added to the reaction mixtures with final concentrations of DMSO of 10% (v/v). […] Formation of the fluorescent product AMC was monitored over 30–60-min time courses for reaction mixtures in 96-well black microplates (Greiner). Rates of peptidolysis of the dipeptide-AMC substrate(s) were measured on either a SpectraMax M2 (Molecular Devices) or a Synergy Mx (Biotek, Wisnooki, VT) microplate reader which measured the formation of fluorescence using an excitation wavelength of λex = 360 nm, with detection of emission at λem = 460 nm at ≥8-s intervals. Control samples excluded substrate. The measured relative fluorescence units (RFUs) of generated AMC were converted to reaction rates of μM/s by use of a standard curve of known AMC concentrations obtained for both plate readers.

cruzain = settings: pH 7.5; ref Li et al., 2021; cited from earlier work
[3] = test system: SARS-CoV-2-infected A549/ACE2 cells; experiment: microbe, parasite or virus in culture; assay type: cell-based
human cathepsin L [4] = target: T2, human cathepsin L; experiment: biochemical
Method: as §1, §2

[5] = test system: SARS-CoV-2-infected Vero E6 cells; settings: cited from earlier work
[6] = test system: SARS-CoV-2-infected A549/ACE2 cells; settings: read-out: Anti-CoV-2 EC50 A549/ACE2 Cells, cited from earlier work
[7] = Severe acute respiratory syndrome coronavirus 2, Vero C1008, 72 h, prevention of CPE, 3 days, read-out: Anti-CoV-2 EC50 Vero E6 Cells
[8] = Severe acute respiratory syndrome coronavirus 2, A549-ACE2, 96 h, read-out: Anti-CoV-2 EC50 A549/ACE2 Cells
[9] = Ki (initial EI complex), fit of vi/v0 vs. [I] to Eq. 4
[10] = Ki* hCatL, after 30-min incubation, pH 5.5, fit of vs/v0 to Eq. 5
[11] = Severe acute respiratory syndrome coronavirus 2, A549-ACE2, 96 h, prevention of CPE, 4 days, read-out: Anti-CoV-2 EC50 A549/ACE2 Cells
[12] = Severe acute respiratory syndrome coronavirus 2, A549-ACE2, read-out: EC50 A549/ACE2 cells
[13] = previously reported, ref Li et al., 2021

T2 sequence (P07711 114-333): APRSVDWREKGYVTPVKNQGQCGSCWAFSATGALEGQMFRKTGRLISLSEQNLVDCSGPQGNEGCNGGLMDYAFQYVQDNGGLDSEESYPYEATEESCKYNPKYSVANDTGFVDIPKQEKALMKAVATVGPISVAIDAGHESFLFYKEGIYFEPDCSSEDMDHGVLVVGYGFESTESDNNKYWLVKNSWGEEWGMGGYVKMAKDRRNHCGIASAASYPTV

Compound	Ki (human cathepsin B) [nM]	Ki (SARS-CoV-2 3CL protease) [µM]	EC50 [1, 7] [µM]	Ki (human cathepsin L [2]) [nM]	Ki (cruzain) [nM]	also measured
O=C(N[C@@H](Cc1ccccc1)C(=O)N[C@H]1Cc2cc(F)ccc2OC1O)OCc1ccccc1 (stereo partly drawn) [Compound 6]	2300	> 10	4	10.3 ± 0.5	48 ± 2	
O=C(N[C@@H](Cc1ccccc1)C(=O)N[C@H]1Cc2ccccc2OC1O)OCc1ccccc1 (stereo partly drawn) [Compound 2, Cbz-Phe-o-Tyr-CHO]	4500	> 10	10 ± 5		49 ± 2	EC50 [3, 8]: > 20000 nM; fold faster k4 than aldehyde 1 (human cathepsin L [2]; conversion of EI* to EI): ~5 fold; fold more potent for human cathepsin L than for cruzain (Ki*) (human cathepsin L [2]): 3.9 fold; k4 (reversion of EI* to EI) (human cathepsin L [2]; intercept of kobs vs. [I], fit to Eq. 3): 0.0016 ± 0.0002 s⁻¹; fold less potent inhibitor of cathepsin L than 1 (Ki*) (human cathepsin L [2]; relative to aldehyde 1): 100 fold; Ki (human cathepsin L [4]; [9]): 54 ± 6 nM; Ki (human cathepsin L [4]; [10]): 12.6 ± 0.4 nM; Ki (human cathepsin L [4]; k4Ki/k3 ∼ Ki*, calculated from the Eq. 3 parameters): ~200 nM
CC(C)C(=O)OC1Oc2ccccc2CC1NC(=O)C(Cc1ccccc1)NC(=O)N1CCN(C)CC1 (stereo not drawn) [Compound 12]			3.75			EC50 ([1]; prevention of CPE, 3 days, read-out: Anti-CoV-2 EC50 Vero E6 Cells): 4 µM; EC50 [3, 11]: 310 nM; EC50 [3, 12]: 156 nM
CC(C)(C)[C@H](NC(=O)C(F)(F)F)C(=O)N1C[C@H]2[C@@H]([C@H]1C(=O)N[C@H](C#N)C[C@@H]1CCNC1=O)C2(C)C [PF-07321332, reference compound]			> 20			EC50 [3, 8]: 470 nM; EC50 ([5]; ref Owen et al. (2021), read-out: Anti-CoV-2 EC50 Vero E6 Cells): 74 nM; EC50 ([6]; ref Owen et al. (2021)): 77 nM
O=C[C@H](Cc1ccccc1)NC(=O)[C@H](Cc1ccccc1)NC(=O)OCc1ccccc1 [Compound 1, Cbz-Phe-Phe-CHO] (Cbz-Phe-Phe-aldehyde)		> 10	0.47		0.44 ± 0.02	EC50 ([1]; Severe acute respiratory syndrome coronavirus 2, Vero C1008, repeat of the experiment with a different sample of 1, read-out: Anti-CoV-2 EC50 Vero E6 Cells): 7.5 µM; EC50 [3, 8]: > 20000 nM; fold more potent for human cathepsin L than for cruzain (Ki*) (human cathepsin L [2]): 3 fold; Ki (human cathepsin L [4]; [9]): 0.18 ± 0.22 nM; Ki (human cathepsin L [4]; [10]): 0.14 ± 0.01 nM
O=C(N[C@@H](Cc1ccccc1)C(=O)N[C@H]1Cc2cc(Cl)ccc2OC1O)OCc1ccccc1 (stereo partly drawn) [Compound 5]	1400 ± 100	> 10		12.1 ± 0.3	70 ± 10	
COc1ccc2c(c1)C[C@H](NC(=O)[C@H](Cc1ccccc1)NC(=O)OCc1ccccc1)C(O)O2 (stereo partly drawn) [Compound 3]	5500	> 10		17 ± 0.9	350 ± 30	fold increase in Ki* compared to 2 (human cathepsin L [2]; cathepsin L): 1.4 fold
CCC(=O)OC1Oc2ccccc2CC1NC(=O)C(Cc1ccccc1)NC(=O)N1CCN(C)CC1 (stereo not drawn) [Compound 11]			2.5			EC50 [3, 11]: 620 nM; EC50 [3, 12]: 625 nM
CC(C)[C@H](NC(=O)OCc1ccccc1)C(=O)N[C@@H](CC1CCCCC1)C(=O)N[C@H]1Cc2cccnc2OC1O (stereo partly drawn) [Compound 9]		0.009 ± 0.002				effect in SARS-CoV-2-infected Vero E6 cells [5, 13]: no effect; EC50 [6, 13]: 3750 nM; Ki (human cathepsin L [4]; [10]): 22 ± 4 nM
CN1CCN(C(=O)NC(Cc2ccccc2)C(=O)NC2Cc3ccccc3OC2O)CC1 (stereo not drawn) [Compound 8, NMe-Pip-Phe-o-Tyr-CHO]	1270 ± 70	> 10	9 ± 2		47 ± 2	anti-viral effect in infected A549/ACE2 cells ([3]; in words): no anti-viral effect; Ki (human cathepsin L [4]; [9]): 22 ± 1 nM; Ki (human cathepsin L [4]; [10]): 9 ± 0.4 nM
Cc1ccc2c(c1)C[C@H](NC(=O)[C@H](Cc1ccccc1)NC(=O)OCc1ccccc1)C(O)O2 (stereo partly drawn) [Compound 4]	6100	> 10		26 ± 0.9	103 ± 5	fold increase in Ki* compared to 2 (human cathepsin L [2]; cathepsin L): 2 fold
COC(=O)c1ccc2c(c1)C[C@H](NC(=O)[C@H](Cc1ccccc1)NC(=O)OCc1ccccc1)C(O)O2 (stereo partly drawn) [Compound 7]	670 ± 30	> 10	2.5	4.8 ± 0.2	18 ± 0.5	fold improved potency over 2 (human cathepsin L [2]; cathepsin L): 2.6 fold
CC(=O)OC1Oc2ccccc2CC1NC(=O)C(Cc1ccccc1)NC(=O)N1CCN(C)CC1 (stereo not drawn) [Compound 10]			2.5			EC50 [3, 11]: 310 nM; EC50 [3, 12]: 312 nM
CN1CCN(C(=O)N[C@@H](Cc2ccccc2)C(=O)N[C@H](/C=C/S(=O)(=O)c2ccccc2)CCc2ccccc2)CC1 [Compound K777]						EC50 ([1]; Severe acute respiratory syndrome coronavirus 2, Vero C1008, 72 h, read-out: Anti-CoV-2 EC50 Vero E6 Cells): 0.15 µM; EC50 ([1]; Severe acute respiratory syndrome coronavirus 2, Vero C1008, read-out: EC50 Vero E6 cells): 0.156 µM; EC50 ([5]; previously found, ref Mellott et al., 2021, read-out: EC50 Vero E6 cells): 625 nM; EC50 ([5]; ref Mellott et al. (2021), read-out: Anti-CoV-2 EC50 Vero E6 Cells): 620 nM; EC50 ([6]; ref Mellott et al. (2021)): < 78 nM
